Data as given in PubChem BioAssay AID2060607 (Molecular Pharmacology Branch, DTP, NCI, 2025).

System: 876862-298-R-J1-PDC complex spheroids, viability % test/control
Experiment: Anticancer human tumor 876862-298-R-J1-PDC patient-derived endometrial carcinoma cell line growth inhibition [CLK]
Settings: for IC50: curve of first compound; for viability, T/C: stronger effect = lower value
Summary of the method: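 Patient-derived tumor cells grown as complex spheroids with HUVEC endothelial cells and mesenchymal stem cells, treated with drug combinations. Concentrations descend in half-log steps from near clinical Cmax, or from 10 microM if Cmax unknown.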

[1] = second compound 0.0316 µM, first compound 0.0316 µM
[2] = second compound 0.0316 µM, first compound 0.1 µM
[3] = second compound 0.0316 µM, first compound 0.316 µM
[4] = second compound 0.0316 µM, first compound 1 µM
[5] = second compound 0.1 µM, first compound 0.0316 µM
[6] = second compound 0.1 µM, first compound 0.1 µM
[7] = second compound 0.1 µM, first compound 0.316 µM
[8] = second compound 0.1 µM, first compound 1 µM
[9] = second compound 0.316 µM, first compound 0.0316 µM
[10] = second compound 0.316 µM, first compound 0.1 µM
[11] = second compound 0.316 µM, first compound 0.316 µM
[12] = second compound 0.316 µM, first compound 1 µM
[13] = second compound 1 µM, first compound 0.0316 µM
[14] = second compound 1 µM, first compound 0.1 µM
[15] = second compound 1 µM, first compound 0.316 µM
[16] = second compound 1 µM, first compound 1 µM
[17] = second compound 3.16 µM, first compound 0.0316 µM
[18] = second compound 3.16 µM, first compound 0.1 µM
[19] = second compound 3.16 µM, first compound 0.316 µM
[20] = second compound 3.16 µM, first compound 1 µM
[21] = second compound 10 µM, first compound 0.0316 µM
[22] = second compound 10 µM, first compound 0.1 µM
[23] = second compound 10 µM, first compound 0.316 µM
[24] = second compound 10 µM, first compound 1 µM
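Note: spheroids exposed to drugs for 7 days before readout.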
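Throughout, for viability, T/C: 100% = DMSO vehicle control wells.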

C=CC(=O)Nc1cc(Nc2nccc(-c3cn(C)c4ccccc34)n2)c(OC)cc1N(C)CCN(C)C + CNC(=O)c1ccc(Nc2nc(OC3CCCC3)c3c(-c4ccc5nc(C)oc5c4)c[nH]c3n2)c(OC)c1
IC50 (second compound 0.0316 µM): 170 nM | IC50 (second compound 0.1 µM): < 0.949 nM | IC50 (second compound 0.316 µM): < 0.949 nM | IC50 (second compound 1 µM): < 0.949 nM | IC50 (second compound 3.16 µM): < 0.949 nM | IC50 (second compound 10 µM): < 0.949 nM | viability, T/C (second compound 0.0316 µM, first compound 0.000949 µM): 74.5% | viability, T/C (second compound 0.0316 µM, first compound 0.003 µM): 79.6% | viability, T/C (second compound 0.0316 µM, first compound 0.00949 µM): 69.1% | viability, T/C (second compound 0.0316 µM, first compound 0.03 µM): 64% | viability, T/C (second compound 0.0316 µM, first compound 0.0949 µM): 53.5% | viability, T/C (second compound 0.0316 µM, first compound 0.3 µM): 46.6% | viability, T/C (second compound 0.1 µM, first compound 0.000949 µM): 49.2% | viability, T/C (second compound 0.1 µM, first compound 0.003 µM): 46% | viability, T/C (second compound 0.1 µM, first compound 0.00949 µM): 44.2% | viability, T/C (second compound 0.1 µM, first compound 0.03 µM): 44.1% | viability, T/C (second compound 0.1 µM, first compound 0.0949 µM): 41.7% | viability, T/C (second compound 0.1 µM, first compound 0.3 µM): 31.3% | viability, T/C (second compound 0.316 µM, first compound 0.000949 µM): 46.4% | viability, T/C (second compound 0.316 µM, first compound 0.003 µM): 41.3% | viability, T/C (second compound 0.316 µM, first compound 0.00949 µM): 42.3% | viability, T/C (second compound 0.316 µM, first compound 0.03 µM): 41.1% | viability, T/C (second compound 0.316 µM, first compound 0.0949 µM): 34% | viability, T/C (second compound 0.316 µM, first compound 0.3 µM): 27.8% | viability, T/C (second compound 1 µM, first compound 0.000949 µM): 36.5% | viability, T/C (second compound 1 µM, first compound 0.003 µM): 30.8% | viability, T/C (second compound 1 µM, first compound 0.00949 µM): 32.7% | viability, T/C (second compound 1 µM, first compound 0.03 µM): 26.9% | viability, T/C (second compound 1 µM, first compound 0.0949 µM): 30.2% | viability, T/C (second compound 1 µM, first compound 0.3 µM): 27.4% | viability, T/C (second compound 3.16 µM, first compound 0.000949 µM): 24.1% | viability, T/C (second compound 3.16 µM, first compound 0.003 µM): 27.6% | viability, T/C (second compound 3.16 µM, first compound 0.00949 µM): 19.2% | viability, T/C (second compound 3.16 µM, first compound 0.03 µM): 20.9% | viability, T/C (second compound 3.16 µM, first compound 0.0949 µM): 20% | viability, T/C (second compound 3.16 µM, first compound 0.3 µM): 19% | viability, T/C (second compound 10 µM, first compound 0.000949 µM): 23.1% | viability, T/C (second compound 10 µM, first compound 0.003 µM): 23.4% | viability, T/C (second compound 10 µM, first compound 0.00949 µM): 21.7% | viability, T/C (second compound 10 µM, first compound 0.03 µM): 19.7% | viability, T/C (second compound 10 µM, first compound 0.0949 µM): 17.9% | viability, T/C (second compound 10 µM, first compound 0.3 µM): 17.4%

CCN1CCN(Cc2ccc(Nc3ncc(F)c(-c4cc(F)c5nc(C)n(C(C)C)c5c4)n3)nc2)CC1 + CNC(=O)c1ccc(Nc2nc(OC3CCCC3)c3c(-c4ccc5nc(C)oc5c4)c[nH]c3n2)c(OC)c1
IC50 (second compound 0.0316 µM): > 1000 nM | IC50 (second compound 0.1 µM): 60.7 nM | IC50 (second compound 0.316 µM): < 3.16 nM | IC50 (second compound 1 µM): < 3.16 nM | IC50 (second compound 3.16 µM): < 3.16 nM | IC50 (second compound 10 µM): < 3.16 nM | viability, T/C (second compound 0.0316 µM, first compound 0.00316 µM): 76.6% | viability, T/C (second compound 0.0316 µM, first compound 0.01 µM): 84.1% | viability, T/C [1]: 69.4% | viability, T/C [2]: 62.5% | viability, T/C [3]: 59% | viability, T/C [4]: 49% | viability, T/C (second compound 0.1 µM, first compound 0.00316 µM): 46% | viability, T/C (second compound 0.1 µM, first compound 0.01 µM): 51.9% | viability, T/C [5]: 57.1% | viability, T/C [6]: 47.8% | viability, T/C [7]: 47.8% | viability, T/C [8]: 49.5% | viability, T/C (second compound 0.316 µM, first compound 0.00316 µM): 47.2% | viability, T/C (second compound 0.316 µM, first compound 0.01 µM): 45.2% | viability, T/C [9]: 49.6% | viability, T/C [10]: 46.4% | viability, T/C [11]: 45.1% | viability, T/C [12]: 42.8% | viability, T/C (second compound 1 µM, first compound 0.00316 µM): 34.7% | viability, T/C (second compound 1 µM, first compound 0.01 µM): 40.4% | viability, T/C [13]: 41.1% | viability, T/C [14]: 38.8% | viability, T/C [15]: 31.8% | viability, T/C [16]: 40.5% | viability, T/C (second compound 3.16 µM, first compound 0.00316 µM): 28% | viability, T/C (second compound 3.16 µM, first compound 0.01 µM): 29.1% | viability, T/C [17]: 27.1% | viability, T/C [18]: 30% | viability, T/C [19]: 30.1% | viability, T/C [20]: 35.2% | viability, T/C (second compound 10 µM, first compound 0.00316 µM): 25.2% | viability, T/C (second compound 10 µM, first compound 0.01 µM): 25.6% | viability, T/C [21]: 22.7% | viability, T/C [22]: 26.4% | viability, T/C [23]: 30.1% | viability, T/C [24]: 32.2%

Nc1ccccc1NC(=O)c1ccc(CNC(=O)OCc2cccnc2)cc1 + CNC(=O)c1ccc(Nc2nc(OC3CCCC3)c3c(-c4ccc5nc(C)oc5c4)c[nH]c3n2)c(OC)c1
IC50 (second compound 0.0316 µM): 3670 nM | IC50 (second compound 0.1 µM): 1070 nM | IC50 (second compound 0.316 µM): < 31.6 nM | IC50 (second compound 1 µM): < 31.6 nM | IC50 (second compound 3.16 µM): < 31.6 nM | IC50 (second compound 10 µM): < 31.6 nM | viability, T/C [1]: 71.4% | viability, T/C [2]: 88.4% | viability, T/C [3]: 82.8% | viability, T/C [4]: 80.6% | viability, T/C (second compound 0.0316 µM, first compound 3.16 µM): 53.1% | viability, T/C (second compound 0.0316 µM, first compound 10 µM): 29.2% | viability, T/C [5]: 46.3% | viability, T/C [6]: 45.3% | viability, T/C [7]: 62.3% | viability, T/C [8]: 50.2% | viability, T/C (second compound 0.1 µM, first compound 3.16 µM): 39.4% | viability, T/C (second compound 0.1 µM, first compound 10 µM): 24.9% | viability, T/C [9]: 41.2% | viability, T/C [10]: 43.8% | viability, T/C [11]: 44.7% | viability, T/C [12]: 40.9% | viability, T/C (second compound 0.316 µM, first compound 3.16 µM): 27.3% | viability, T/C (second compound 0.316 µM, first compound 10 µM): 16.9% | viability, T/C [13]: 33.4% | viability, T/C [14]: 31.7% | viability, T/C [15]: 32.5% | viability, T/C [16]: 27.1% | viability, T/C (second compound 1 µM, first compound 3.16 µM): 15.7% | viability, T/C (second compound 1 µM, first compound 10 µM): 9.26% | viability, T/C [17]: 25% | viability, T/C [18]: 22.5% | viability, T/C [19]: 22.5% | viability, T/C [20]: 16.1% | viability, T/C (second compound 3.16 µM, first compound 3.16 µM): 12.1% | viability, T/C (second compound 3.16 µM, first compound 10 µM): 2.17% | viability, T/C [21]: 21% | viability, T/C [22]: 22.2% | viability, T/C [23]: 16.6% | viability, T/C [24]: 15.7% | viability, T/C (second compound 10 µM, first compound 3.16 µM): 10% | viability, T/C (second compound 10 µM, first compound 10 µM): 0.74%
